Experimental data taken from patent US8324406B2, “Antitumoral dihydropyran-2-one compounds” (priority 2006, dated 2012).

Experiments:
Experiment in all cases: cells
Type in all cases: cell-based
A549 = settings: Homo sapiens, A549, 48 hours exposure, SRB; for CC50: 50% net cell killing (cytotoxic effect), read-out: LC50 (the source's name); for GI50: concentration that produces 50% growth inhibition, read-out: GI50; for IC (TGI): total growth inhibition (cytostatic effect), read-out: TGI
Text: (§1) The aim of this assay is to evaluate the in vitro cytostatic (ability to delay or arrest tumor cell growth) or cytotoxic (ability to kill tumor cells) activity of the samples being tested.
(§2) Evaluation of Cytotoxic Activity Using the SBR Colorimetric Assay
(§3) A colorimetric type of assay, using sulforhodamine B (SRB) reaction has been adapted for a quantitative measurement of cell growth and viability (following the technique described by Skehan P et al. J. Natl. Cancer Inst. 1990, 82, 1107-1112).
(§4) This form of assay employs SBS-standard 96-well cell culture microplates (Faircloth et al. Methods in cell science, 1988, 11(4), 201-205; Mosmann et al, Journal of. Immunological. Methods, 1983, 65(1-2), 55-63). All the cell lines used in this study, derived from different types of human cancer, were obtained from the American Type Culture Collection (ATCC).
(§5) Cells were maintained in Dulbecco's Modified Eagle Medium (DMEM) supplemented with 10% Fetal Bovine Serum (FBS), 2 mM L-glutamine, 100 U/mL penicillin and 100 U/mL streptomycin at 37° C., 5% CO2 and 98% humidity. For the experiments, cells were harvested from subconfluent cultures using trypsinization and resuspended in fresh medium before counting and plating.
(§6) Cells were seeded in 96 well microtiter plates at 5×10^3 cells per well in aliquots of 150 μL, and allowed to attach to the plate surface for 18 hours in drug free medium. One control (untreated) plate of each cell line was fixed (as described below) and used for time zero reference value. Afterwards, test samples were added to the cultures in ten serial dilutions, in aliquots of 50 μL, ranging from 10 to 0.00262 μg/mL. After 48 hours exposure, the antitumor effect was estimated by the SRB method: Briefly, cells were washed twice with PBS, fixed for 15 min in 1% glutaraldehyde solution, rinsed twice in PBS, and stained in 0.4% SRB solution for 30 min at room temperature. Cells were then rinsed several times with 1% acetic acid solution and air-dried. SRB was then extracted in 10 mM trizma base solution and the absorbance measured in an automated spectrophotometric plate reader at 490 nm. Cell survival was expressed as percentage of control cell growth. The final effect of the sample being tested was estimated by applying the NCI algorithm (Boyd M R and Paull K D. Drug Dev. Res. 1995, 34, 91-104).
(§7) Using the mean±SD of triplicate cultures, a dose-response curve was automatically generated using nonlinear regression analysis. Three reference parameters were calculated (NCI algorithm) by automatic interpolation: GI50=concentration that produces 50% growth inhibition; TGI=total growth inhibition (cytostatic effect) and LC50=concentration that produces 50% net cell killing (cytotoxic effect).

HT29 = settings: Homo sapiens, HT-29, HT29, 48 hours exposure, SRB; for CC50: 50% net cell killing (cytotoxic effect), read-out: LC50 (the source's name); for GI50: concentration that produces 50% growth inhibition, read-out: GI50; for IC (TGI): total growth inhibition (cytostatic effect), read-out: TGI
Text: as §1, §2, §3, §4, §5, §6, §7

MDA-MB-231 = settings: Homo sapiens, MDA-MB-231, 48 hours exposure, SRB; for CC50: 50% net cell killing (cytotoxic effect), read-out: LC50 (the source's name); for GI50: concentration that produces 50% growth inhibition, read-out: GI50; for IC (TGI): total growth inhibition (cytostatic effect), read-out: TGI
Text: as §1, §2, §3, §4, §5, §6, §7

COC1=CC[C@@H]([C@@H](C)/C=C(C)/C=C\C=C/C(=O)N[C@H](C(=O)N/C=C\C[C@H](C/C=C(\C)Cl)O[Si](C)(C)C(C)(C)C)C(C)(C)C)OC1=O [Compound 29a]
CC50 (A549): 8.56 µM
GI50 (A549): 0.886 µM
IC (TGI) (A549): 3.4 µM
CC50 (HT29): 4.43 µM
GI50 (HT29): 0.605 µM
IC (TGI) (HT29): 1.42 µM
CC50 (MDA-MB-231): 6.2 µM
GI50 (MDA-MB-231): 1.18 µM
IC (TGI) (MDA-MB-231): 2.8 µM

COC1=CC[C@@H]([C@@H](C)/C=C(C)/C=C\C=C/C(=O)N[C@@H](Cc2ccccc2)C(=O)N/C=C\C[C@H](C/C=C(\C)Cl)O[Si](C)(C)C(C)(C)C)OC1=O [Compound 29d]
CC50 (A549): 1.38 µM
GI50 (A549): 0.464 µM
IC (TGI) (A549): 0.801 µM
CC50 (HT29): 0.928 µM
GI50 (HT29): 0.829 µM
IC (TGI) (HT29): 0.872 µM
CC50 (MDA-MB-231): 1.83 µM
GI50 (MDA-MB-231): 1.1 µM
IC (TGI) (MDA-MB-231): 1.39 µM

COC1=CC[C@@H]([C@@H](C)/C=C(C)/C=C\C=C\C(=O)N[C@H](C(=O)N/C=C\C[C@H](C/C=C(\C)Cl)O[Si](C)(C)C(C)(C)C)C(C)(C)C)OC1=O [Compound 29e]
CC50 (A549): 2.66 µM
GI50 (A549): 1.15 µM
IC (TGI) (A549): 1.77 µM
CC50 (HT29): 2.36 µM
GI50 (HT29): 2.07 µM
IC (TGI) (HT29): 2.21 µM
CC50 (MDA-MB-231): 2.07 µM
GI50 (MDA-MB-231): 1.14 µM
IC (TGI) (MDA-MB-231): 1.48 µM

COC1=CC[C@@H]([C@@H](C)/C=C(C)/C=C\C=C/C(=O)N[C@H](C(=O)N/C=C\C[C@@H](O)C/C=C(\C)Cl)C(C)(C)C)OC1=O [Compound 30a]
CC50 (A549): > 1.78 µM
GI50 (A549): 0.00231 µM
IC (TGI) (A549): 0.137 µM
CC50 (HT29): 0.0101 µM
GI50 (HT29): 0.00135 µM
IC (TGI) (HT29): 0.00213 µM
CC50 (MDA-MB-231): 0.0852 µM
GI50 (MDA-MB-231): 0.00195 µM
IC (TGI) (MDA-MB-231): 0.00941 µM

C/C=C\C[C@H](O)C/C=C\NC(=O)[C@@H](NC(=O)\C=C/C=C\C(C)=C\[C@H](C)[C@@H]1CC=C(OC)C(=O)O1)C(C)(C)C [Compound 30b]
CC50 (A549): > 18.9 µM
GI50 (A549): 0.0227 µM
IC (TGI) (A549): 0.322 µM
CC50 (HT29): 4.73 µM
GI50 (HT29): 0.00984 µM
IC (TGI) (HT29): 0.0927 µM
CC50 (MDA-MB-231): 5.11 µM
GI50 (MDA-MB-231): 0.0208 µM
IC (TGI) (MDA-MB-231): 0.511 µM

COC1=CC[C@@H]([C@@H](C)/C=C(C)/C=C\C=C/C(=O)N[C@H](C(=O)N/C=C\C[C@@H](O)C/C=C(\C)Cl)C(C)C)OC1=O [Compound 30c]
CC50 (A549): > 0.182 µM
GI50 (A549): 0.00071 µM
IC (TGI) (A549): 0.0031 µM
CC50 (HT29): > 0.182 µM
GI50 (HT29): 0.000474 µM
IC (TGI) (HT29): 0.000838 µM
CC50 (MDA-MB-231): 0.0528 µM
GI50 (MDA-MB-231): 0.000983 µM
IC (TGI) (MDA-MB-231): 0.00583 µM

COC1=CC[C@@H]([C@@H](C)/C=C(C)/C=C\C=C/C(=O)N[C@@H](Cc2ccccc2)C(=O)N/C=C\C[C@@H](O)C/C=C(\C)Cl)OC1=O [Compound 30d]
CC50 (A549): > 0.0167 µM
GI50 (A549): 0.000318 µM
IC (TGI) (A549): 0.00106 µM
CC50 (HT29): > 0.0167 µM
GI50 (HT29): 0.000132 µM
IC (TGI) (HT29): 0.000251 µM
CC50 (MDA-MB-231): > 0.0167 µM
GI50 (MDA-MB-231): 0.00031 µM
IC (TGI) (MDA-MB-231): 0.000703 µM

COC1=CC[C@@H]([C@@H](C)/C=C(C)/C=C\C=C\C(=O)N[C@H](C(=O)N/C=C\C[C@@H](O)C/C=C(\C)Cl)C(C)(C)C)OC1=O [Compound 30e]
CC50 (A549): 3.55 µM
GI50 (A549): 0.0355 µM
IC (TGI) (A549): 0.302 µM
CC50 (HT29): 0.0444 µM
GI50 (HT29): 0.0135 µM
IC (TGI) (HT29): 0.0213 µM
CC50 (MDA-MB-231): 0.266 µM
GI50 (MDA-MB-231): 0.0231 µM
IC (TGI) (MDA-MB-231): 0.0657 µM

C/C(Cl)=C\C[C@H](O)C/C=C\NC(=O)[C@@H](NC(=O)\C=C/C=C\C(C)=C\[C@H](C)[C@@H]1CC=CC(=O)O1)C(C)(C)C [Compound 30f]
CC50 (A549): 0.919 µM
GI50 (A549): 0.488 µM
IC (TGI) (A549): 0.657 µM
CC50 (HT29): 1.05 µM
GI50 (HT29): 0.488 µM
IC (TGI) (HT29): 0.713 µM
CC50 (MDA-MB-231): 1.61 µM
GI50 (MDA-MB-231): 0.694 µM
IC (TGI) (MDA-MB-231): 1.07 µM
